Laboratory results: US20210046139A1, “VEGETATION WATERS AND USES THEREOF” (FATTORIA LA VIALLA DI GIANNI, ANTONIO E BANDINO LO FRANCO - …, priority 2018, published 2021)
Marks after values point to notes of the source that are not given here.

How the values were obtained:
Assay type in all cases: in vivo, Sprague-Dawley rats
[1] = Body weight, daily food and water intake in STZ diabetic and control rats; settings: 5 weeks; for BODY WEIGHT: 50 mg/kg/day (HT equivalent) in drinking water; for BODY WEIGHT / FOOD INTAKE: mean ± S.E.; for WATER INTAKE / FOOD INTAKE: 50 mg/kg/day
Description: (§1) Use was made of 48 male Sprague-Dawley rats (Harlan, Italy) with a weight comprised from 180-200 g. A well-established model of streptozotocin (STZ)-induced diabetes in rats was used. Streptozotocin is a glucosamine derivative of nitrosurea which selectively destroys the β cells of the pancreatic islets and causes the development of diabetes with hyperglycemia and glycosuria. The model shares a series of characteristics with human diabetic complications at both a functional level and a biochemical level, such as, for example, a reduced nervous conduction, loss of small-diameter sensory nerve fibers in the skin, reduction in Na+ and K+-ATPase activity and early alterations of the thermal and mechanical nociceptive thresholds. In this study, diabetes was induced in 24 rats with a single intraperitoneal injection of 60 mg/kg of STZ dissolved in a sodium citrate buffer (pH 4.5). 24 rats injected only with the vehicle were used as non-diabetic controls. Hyperglycemia was confirmed by measuring glycosuria 72 hours after the injection of STZ using Keto-Diabur strips (KD-5000; Roche Diagnostics Spa, Italy). Only the animals with glycosuria >5% were classified as diabetic and included in the study. […] The animals were then randomized to receive the concentrate of the invention at an HT equivalent dose of 50 mg/kg/day or 50 mg/kg/day of pure HT in drinking water, according to the following treatment groups: The daily dose of compounds was administered starting from the 7th week after the injection of STZ or the vehicle. The treatment lasted 5 weeks and urine samples were taken. The animals were then sacrificed and the plasma, kidneys and sciatic nerves were removed. The sacrifice took place within 2 hours after the last administration of the concentrate, HT or the vehicle. During the trial, the rats were weighed weekly to monitor their weight gain/loss. Hyperglycemia was confirmed in every rat by measuring the glucose level in the blood taken from the vein of the tail with a suitable apparatus (Glucomen, Menarini, Italy), 15 days after the injection of STZ. A plasma glucose level above 300 mg/dL was defined as the hyperglycemia threshold for defining the animals as diabetics.

STZ diabetic rats [2] = test: Plasma glucose and glycated hemoglobin (HbA1c); settings: for HbA1c / PLASMA GLUCOSE: 50 mg/kg/day, 5 weeks, mean ± S.E.
Description: as §1, with “A” for “Use was made of 48 male Sprague-Dawley rats (Harlan, Italy) with a weight comprised from 180-200 g. A”, “diabetics. At the end of the 5-week treatment period, urine and plasma were collected to measure the level of triglycerides (TG), total cholesterol (TC), high-density lipoprotein (HDL) and other parameters using commercially available diagnostic kits.” for “diabetics.”

STZ diabetic rats [3] = test: Mechanical nociceptive threshold (Randall-Selitto test); settings: non-diabetic rats
Description: A well-established model of streptozotocin (STZ)-induced diabetes in rats was used. Streptozotocin is a glucosamine derivative of nitrosurea which selectively destroys the β cells of the pancreatic islets and causes the development of diabetes with hyperglycemia and glycosuria. The model shares a series of characteristics with human diabetic complications at both a functional level and a biochemical level, such as, for example, a reduced nervous conduction, loss of small-diameter sensory nerve fibers in the skin, reduction in Na+ and K+-ATPase activity and early alterations of the thermal and mechanical nociceptive thresholds. In this study, diabetes was induced in 24 rats with a single intraperitoneal injection of 60 mg/kg of STZ dissolved in a sodium citrate buffer (pH 4.5). 24 rats injected only with the vehicle were used as non-diabetic controls. Hyperglycemia was confirmed by measuring glycosuria 72 hours after the injection of STZ using Keto-Diabur strips (KD-5000; Roche Diagnostics Spa, Italy). […] The animals were then randomized to receive the concentrate of the invention at an HT equivalent dose of 50 mg/kg/day or 50 mg/kg/day of pure HT in drinking water, according to the following treatment groups: The mechanical nociceptive threshold (Randall-Selitto test) was assessed using an electromechanical apparatus (Ugo Basile, Varese, Italy). […]

[4] = non-diabetic control rats (CTRL)

SMILES: OCCc1ccc(O)c(O)c1 [HT, hydroxytyrosol]
- BODY WEIGHT ([1]; STZ diabetic rats): 216.6 ± 13.0 g
- WATER INTAKE ([1]; STZ diabetic rats): 170.1* ml/24 h
- FOOD INTAKE ([1]; STZ diabetic rats): 33.3 ± 3.7 g/24 h
- BODY WEIGHT [1, 4]: 450.4 ± 16.4 g
- WATER INTAKE [1, 4]: 69.5 ml/24 h
- FOOD INTAKE [1, 4]: 20.6 ± 0.9 g/24 h
- reduction in HbA1c (glycated hemoglobin) (STZ diabetic rats [2]; STZ diabetic rats vs. untreated diabetic rats): 20%
- HbA1c (STZ diabetic rats [2]; STZ diabetic rats): 52.3 ± 5.3 mM/mol
- PLASMA GLUCOSE (STZ diabetic rats [2]; STZ diabetic rats): 729.6 ± 36.5 mg/dL
- HbA1c (STZ diabetic rats [2]; [4]): 16.7 ± 0.2 mM/mol
- PLASMA GLUCOSE (STZ diabetic rats [2]; [4]): 186.1 ± 3.2 mg/dL
- effect on mechanical nociceptive threshold (STZ diabetic rats [3]): no effect
